Results: publication PMC9684503 (Communications Biology, 2022)
Values joined by “and” are separate entries in the source; they are usually repeats but may differ in a detail not shown here. Identical values can stand only once. Counter-ions that a name gives are not always drawn. Like-named read-outs stand apart in the source and are kept apart here.

Legend:
rat VMAT2-His = molecular target: T1, rat VMAT2-His (Rattus norvegicus, UniProt Q01827); assay: Differential scanning fluorimetry (DSF) with CPM dye: change of melting temperature of purified VMAT2; assay type: binding; details: for ΔTm at 12 µM / ΔTm at 37 µM / ΔTm at 10 µM / ΔTm at 30 µM / ΔTm at 90 µM / ΔTm at 270 µM / ΔTm at 11 µM / ΔTm at 33 µM: read-out: ΔTm
T1 construct: The ORF of rat VMAT2 was subcloned into a pFastBac vector; His; made in house; host or cells: Sf9 insect cells (baculovirus)
T1 sequence (Q01827 whole entry): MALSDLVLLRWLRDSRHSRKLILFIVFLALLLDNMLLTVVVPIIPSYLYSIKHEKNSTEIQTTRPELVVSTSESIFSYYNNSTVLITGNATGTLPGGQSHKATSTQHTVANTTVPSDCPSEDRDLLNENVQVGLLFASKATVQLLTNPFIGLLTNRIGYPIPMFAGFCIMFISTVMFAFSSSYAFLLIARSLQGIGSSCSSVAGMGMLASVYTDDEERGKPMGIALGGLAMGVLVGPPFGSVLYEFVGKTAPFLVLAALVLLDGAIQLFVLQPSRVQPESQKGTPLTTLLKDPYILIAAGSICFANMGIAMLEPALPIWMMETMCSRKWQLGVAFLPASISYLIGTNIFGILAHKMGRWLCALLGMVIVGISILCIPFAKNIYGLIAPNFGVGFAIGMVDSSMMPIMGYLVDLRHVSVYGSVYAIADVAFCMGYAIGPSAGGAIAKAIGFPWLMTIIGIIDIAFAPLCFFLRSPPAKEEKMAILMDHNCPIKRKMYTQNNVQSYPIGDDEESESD
Protocol: To screen purified VMAT2 by DSF we expressed the rat VMAT2 protein, as VMAT2-His, in SF9 insect cells using the baculovirus expression system. The transporter was solubilized and purified in n-Dodecyl-β-D-maltoside (DDM)/cholesterol hemisuccinate (CHS) micelles by immobilized metal affinity chromatography (IMAC) and size exclusion chromatography (SEC). […] Screening was performed using DSF and the thiol-reactive dye 7-diethylamino-3-(4-maleimidophenyl)-4-methylcoumarin (CPM), an approach that monitors changes to the protein melting temperature (Tm) upon compound binding. Using CPM or other dyes, DSF-based assays have successfully been used in molecular-based screenings[34],[35]. […] DSF screening was performed in 384 well plates using the thiol-sensing dye 7-diethylamino-3-(4-maleimidophenyl)-4-methylcoumarin (CPM) (Merck). […] Protein melting curves were determined using a LightCycler 480 ii RT-PCR system (Roche), with a temperature ramp increasing from 25 to 95 °C at a rate of 2 °C/min. Data analysis was performed using an in-house software that automatically determines the protein midpoint melting temperature (Tm) based on the second derivative of the melting curves or using the HTSDSF explorer as described in ref. [58]. […] 6 μl of this mix was dispensed to each well of 384 well plates using a Multidrop™ Combi Reagent Dispenser (Thermo Scientific). […] All initial hits were then subjected to an initial validation in triplicates with a compound concentration of 200 μM and a ΔTm > 5× the standard deviation (SD) cut off. […] Processing of the data from the primary screening and the concentration-dependent validation was performed as reported.

rat VMAT2 = rat VMAT2 (Rattus norvegicus, UniProt Q01827); assay: FFN206 uptake assay in transfected Hek293 cells
Chain of rat VMAT2 (Q01827 whole entry): as above

VMAT2 [1] = molecular target: T2, VMAT2 (Rattus norvegicus, UniProt Q01827); details: hek293 cells, 50 µM
T2 sequence (Q01827 whole entry): as above

VMAT2 [2] = molecular target: T2, VMAT2; assay: [3H]-DTBZ competition assay in Hek293 cells expressing VMAT2; details: 50 μM compound;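 further: HEK293 cells transfected with VMAT2, pretreated 30 min with compound, then given 5 nM [3H]-DTBZ for 20 min at 37 °C, bound label read by scintillation counting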
[3] = Table S1, primary hits, average change in melting temperature vs controls, triplicates
[4] = Table S2 dose response, compound 0,12 µM
[5] = Table S2 dose response, compound 0,37 µM
[6] = Table S2 dose response, compound 10 µM
[7] = Table S2 dose response, compound 30 µM
[8] = Table S2 dose response, compound 90 µM
[9] = Table S2 dose response, compound 270 µM
[10] = Table S2 dose response, compound 1,11 µM
[11] = Table S2 dose response, compound 3,33 µM

For `Fc1ccc(C(OCCN2CCN(CCCc3ccccc3)CC2)c2ccc(F)cc2)cc1` [GBR 12909 dihydrochloride], the ΔTm (rat VMAT2-His; [3]) was -17,11 ± 0,01 oC, the ΔTm at 12 µM (rat VMAT2-His; [4]) was -0.02 °C and the ΔTm at 37 µM (rat VMAT2-His; [5]) was -0.01 °C. It also gave a ΔTm at 10 µM (rat VMAT2-His; [6]) of -1.07 °C, a ΔTm at 30 µM (rat VMAT2-His; [7]) of -1.67 °C and a ΔTm at 90 µM (rat VMAT2-His; [8]) of -2.3 °C. For the same compound, the ΔTm at 270 µM (rat VMAT2-His; [9]) was -5.4 °C, the ΔTm at 11 µM (rat VMAT2-His; [10]) was 0.05 °C and the ΔTm at 33 µM (rat VMAT2-His; [11]) was -0.34 °C.
For `C[C@@H]1C[C@H]2[C@@H]3C[C@H](F)C4=CC(=O)C=C[C@]4(C)[C@@]3(Cl)[C@@H](O)C[C@]2(C)[C@H]1C(=O)COC(=O)C(C)(C)C` [Clocortolone pivalate], the ΔTm (rat VMAT2-His; [3]) was 1,04 ± 0,11 oC.
`C#CCN(C)[C@H](C)Cc1ccccc1` [Selegiline hydrochloride] showed a ΔTm at 10 µM (rat VMAT2-His; [6]) of 0.3 °C, a ΔTm at 30 µM (rat VMAT2-His; [7]) of 0.19 °C and a ΔTm at 90 µM (rat VMAT2-His; [8]) of 0.28 °C. The ΔTm at 11 µM (rat VMAT2-His) was 0.31 °C, the ΔTm at 12 µM (rat VMAT2-His) was 0.33 °C and the ΔTm at 33 µM (rat VMAT2-His) was 0.32 °C. It also gave a ΔTm at 37 µM (rat VMAT2-His) of 0.38 °C and a ΔTm at 270 µM (rat VMAT2-His) of 0.36 °C.
For `O=C(c1ccc(F)cc1)C1CCN(CCn2c(=O)[nH]c3ccccc3c2=O)CC1` [Ketanserin tartrate hydrate], the ΔTm (rat VMAT2-His; [3]) was 3,12 ± 0,24 oC, the ΔTm at 10 µM (rat VMAT2-His; [6]) was 1.16 °C and the ΔTm at 30 µM (rat VMAT2-His; [7]) was 1.17 °C. The ΔTm at 90 µM (rat VMAT2-His; [8]) was 0.95 °C and the ΔTm at 270 µM (rat VMAT2-His; [9]) was 2.18 °C.
`CN1CCCC(n2nc(Cc3ccc(Cl)cc3)c3ccccc3c2=O)CC1` (stereo not drawn) [Azelastine HCl] was tested, and the ΔTm (rat VMAT2-His; [3]) was 0,85 ± 0,24 oC, the ΔTm at 10 µM (rat VMAT2-His; [6]) was -0.6 °C and the ΔTm at 30 µM (rat VMAT2-His; [7]) was 0.35 °C. For the same compound, the ΔTm at 90 µM (rat VMAT2-His; [8]) was 0.23 °C and the ΔTm at 270 µM (rat VMAT2-His; [9]) was 0.55 °C.
For `CC(C)NCC(O)c1ccc2ccccc2c1` (stereo not drawn) [Pronethalol, Pronethalol hydrochloride], the ΔTm (rat VMAT2-His; 10 µM) was 0,71 oC, the ΔTm (rat VMAT2-His; 11 µM) was 0,70 oC and the ΔTm (rat VMAT2-His; 12 µM) was -0,02 oC. The ΔTm (rat VMAT2-His; 30 µM) was 1,83 oC, the ΔTm (rat VMAT2-His; 33 µM) was 0,48 oC and the ΔTm (rat VMAT2-His; 37 µM) was 0,21 oC. For the same compound, the ΔTm (rat VMAT2-His; 90 µM) was 2,42 oC, the ΔTm (rat VMAT2-His; 270 µM) was 3,75 oC and the IC50 (rat VMAT2) was 1010 ± 300 nM.
`CCCc1nn(C)c2c(=O)[nH]c(-c3cc(S(=O)(=O)N4CCN(C)CC4)ccc3OCC)nc12` [Sildenafil] was tested, and the ΔTm (rat VMAT2-His; [3]) was 1,10 ± 0,14 oC, the ΔTm at 12 µM (rat VMAT2-His; [4]) was 0.43 °C and the ΔTm at 37 µM (rat VMAT2-His; [5]) was 0.04 °C. It also gave a ΔTm at 10 µM (rat VMAT2-His; [6]) of 0.11 °C, a ΔTm at 30 µM (rat VMAT2-His; [7]) of 0.1 °C and a ΔTm at 90 µM (rat VMAT2-His; [8]) of 0.39 °C. For the same compound, the ΔTm at 270 µM (rat VMAT2-His; [9]) was 1.04 °C, the ΔTm at 11 µM (rat VMAT2-His; [10]) was 0.04 °C and the ΔTm at 33 µM (rat VMAT2-His; [11]) was 0.09 °C.
In the case of `Cc1cccc(C)c1NC(=O)CN1CCN(CCCC(c2ccc(F)cc2)c2ccc(F)cc2)CC1` [Lidoflazine], the ΔTm (rat VMAT2-His; [3]) is reported as 1,35 ± 0,18 oC, the ΔTm at 12 µM (rat VMAT2-His; [4]) is reported as 0.23 °C and the ΔTm at 37 µM (rat VMAT2-His; [5]) is reported as 0.05 °C. It also gave a ΔTm at 10 µM (rat VMAT2-His; [6]) of 0.23 °C, a ΔTm at 30 µM (rat VMAT2-His; [7]) of 0.21 °C and a ΔTm at 90 µM (rat VMAT2-His; [8]) of 0.33 °C. The ΔTm at 270 µM (rat VMAT2-His; [9]) was 1.14 °C, the ΔTm at 11 µM (rat VMAT2-His; [10]) was 0.12 °C and the ΔTm at 33 µM (rat VMAT2-His; [11]) was 0.16 °C.
With `CCCCCCC[N+](CC)(CC)CCCCc1ccc(Cl)cc1.Cc1ccc(S(=O)(=O)[O-])cc1` [Clofilium tosylate] the ΔTm (rat VMAT2-His; 270 µM) was -2,26 oC, the ΔTm (rat VMAT2-His; [6]) was -0,06 oC and the ΔTm (rat VMAT2-His; [7]) was -0,15 oC. The ΔTm (rat VMAT2-His; [8]) was -0,36 oC.
For `CC(C(O)c1ccc(O)cc1)N1CCC(Cc2ccccc2)CC1.CC(C(O)c1ccc(O)cc1)N1CCC(Cc2ccccc2)CC1.O=C(O)C(O)C(O)C(=O)O` (stereo not drawn) [Ifenprodil tartrate], the ΔTm (rat VMAT2-His; 11 µM) was -0,20 oC, the ΔTm (rat VMAT2-His; 12 µM) was 0,30 oC and the ΔTm (rat VMAT2-His; 33 µM) was 0,14 oC. The ΔTm (rat VMAT2-His; 37 µM) was 0,32 oC, the ΔTm (rat VMAT2-His; 270 µM) was 0,41 oC and the ΔTm (rat VMAT2-His; [3]) was 1,23 ± 0,40 oC. For the same compound, the ΔTm (rat VMAT2-His; [6]) was 0,09 oC, the ΔTm (rat VMAT2-His; [7]) was 0,06 oC and the ΔTm (rat VMAT2-His; [8]) was -0,04 oC.
For `CCN(CC)CCCC(C)Nc1ccnc2cc(Cl)ccc12` (stereo not drawn) [Chloroquine], the activity (VMAT2 [1]) was 85.1 ± 11.3%, the IC50 (rat VMAT2) was over 10000 nM and the “effect on [3H]-DTBZ binding compared with DMSO control (one-way ANOVA, p < 0.001)” value (VMAT2 [2]) was “no statistically significant effect”.
For `CC(C)(C)NCC(O)c1cc(Cl)c(N)c(Cl)c1` (stereo not drawn) [Clenbuterol], the ΔTm (rat VMAT2-His; Table 1, DSF screening, mean ± SD of triplicates) was 2.19 ± 0.13 oC and the IC50 (rat VMAT2) was over 10000 nM.
`OCc1cc([C@@H](O)CNCCCCCCOCCOCc2c(Cl)cccc2Cl)ccc1O` [Vilanterol] was tested, and the IC50 (rat VMAT2) was 47 ± 14 nM, the “FFN206 uptake relative to no compound (=1), replicate samples” value (from here on “FFN206 uptake relative to no compound”) (rat VMAT2; Fig. 2b/2c source data, compound 0.0152 μM) was 0.9388 and 0.9839 and 0.9625 and 0.9806 and the “FFN206 uptake relative to no compound” value (rat VMAT2; Fig. 2b/2c source data, compound 0.1372 μM) was 0.349 and 0.2794 and 0.2127 and 0.5464. For the same compound, the “FFN206 uptake relative to no compound” value (rat VMAT2; Fig. 2b/2c source data, compound 0.4115 μM) was 0.2586 and 0.1616 and 0.1258 and 0.3046, the “FFN206 uptake relative to no compound” value (rat VMAT2; Fig. 2b/2c source data, compound 1.2346 μM) was 0.2328 and 0.1144 and 0.1141 and 0.2682 and the “FFN206 uptake relative to no compound” value (rat VMAT2; Fig. 2b/2c source data, compound 3.7037 μM) was 0.255 and 0.1011 and 0.07806 and 0.2392. The “FFN206 uptake relative to no compound” value (rat VMAT2; Fig. 2b/2c source data, compound 11.1111 μM) was 0.2251 and 0.08176 and 0.1003 and 0.2777 and the “FFN206 uptake relative to no compound” value (rat VMAT2; Fig. 2c source data, compound 0.0017 μM) was 1.315 and 1.032 and 1.041 and 1.083.
